In patent publication US20110028566A1, “COMPOSITIONS AND PRODUCTS CONTAINING CYCLOALIPHATIC DIOL ANTIMICROBIAL AGENTS AND METHODS OF USING THE COMPOSITIONS AND PRODUCTS” (EASTMAN CHEMICAL COMPANY, priority 2009, published 2011):

Key:
Type in all cases: cell-based
Candida albicans = test: Microbial challenge testing in BPW; conditions: for Grade code, C. albicans, 3 Day / Grade code, C. albicans, 14 Day / Grade code, C. albicans, 30 Days: BPW, w/v % in label, average of replicates
In short: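 C. albicans was grown in TSB with 1% dextrose at 22°C and harvested by gauze filtration and centrifugation. It was then adjusted by turbidity in pH 7.2 phosphate buffer and checked by hemocytometer and SDA plate counts. The inoculum was added to BPW (pH 7.0, 1% dextrose) containing test materials, giving 10^5–10^6 cfu/mL at time zero.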

Malassezia furfur = test: Challenge testing with pathogenic fungi in SDB; conditions: SDB with olive oil and Tween 80, w/v % in label, pellicle formation; for Grade code, Pathogenic Fungi, M. furfur, 14 Days: 14 days incubation; for Grade code, Pathogenic Fungi, M. furfur, 30 Days: 30 days incubation
Procedure: (§1) Both M. canis and Trichophyton rubrum were grown on Sabouraud dextrose broth (SDB) (pH 5.6), while Malassezia fufur was grown in SDB supplemented with 2% (v/v) of olive oil and 0.2% (v/v) of Tween™ 80; incubation was at 22° C.±2° C. under continuous agitation by stirring for 10 days. The organisms were grown to a cell concentration of between 10^3 and 10^4 cfu/mL. The actual inoculation cell concentration of these challenges was determined by diluting in sterile buffer water and (spread-plate method) plating for enumeration.
(§2) Challenge organisms were used to inoculate tubes containing each test material (CHDM, etc) or combination of test materials, at concentrations given in Table 5, in SDB (or for M. furfur, in SDB supplemented with olive oil and Tween™ 80). The inoculations were in the amount of 1.5 mL aliquots of each culture with static incubation at 22±2° C. Subcultures were made after 3-, 14-, and 30-days incubation. All challenges were conducted in triplicate. In the case of M. canis, the growth response was assessed by the visual presence or absence of growth in the tubes; in the case of T. rubrum, a respiratory dye (0.2% w/v aqueous INT solution: 2-(4-iodophenyl)-3-(4-nitrophenyl)-5-phenyl tetrazolium chloride) was added to the tubes, turning red if the organism was viable; and, finally, in the case of M. furfur, the growth response was assessed based upon visible pellicle formation in the tubes at the meniscus. The fungal growth in each tube was assigned a grade code as follows:
(§3) 0: No visible growth 1: Some growth in tube 2: Moderate growth in tube 3: Good growth in tube 4: Extreme growth in tube
(§4) All test material concentrations are given as w/v %. The grade codes given are the average of the grade codes for duplicate or triplicate samples.
(§5) Table 5 compares the antimicrobial activity of 1,4-CHDM (AB) alone to 1,4-CHDM in combination with EDTA, phenoxyethanol (PE), and caprylyl glycol (CG). CHDM at 0.5% was tested with EDTA, and at 1.25 and 2.5% with EDTA, PE, and CG. (Note that the combination of CHDM with only EDTA was not tested against pathogenic fungi.) Results are also given for EDTA, PE, and CG alone, so the result for each mixture can be compared to the antimicrobial activity for each of its components individually. […] Possible synergies were determined by treating the grade code as an estimate of the log of the microbial count (log of cfu/mL). Log reductions can then be estimated by subtracting each grade code from the grade code for broth alone (grade code 5, except for the pathogenic fungi).

Microsporum canis = test: Challenge testing with pathogenic fungi in SDB; conditions: w/v % in label, visual growth in tubes; for Grade code, Pathogenic Fungi, M. canis, 14 Days: 14 days incubation; for Grade code, Pathogenic Fungi, M. canis, 30 Days: 30 days incubation
Procedure: as §1, §2, §3, §4, §5

Trichophyton rubrum = test: Challenge testing with pathogenic fungi in SDB; conditions: w/v % in label, INT respiratory dye; for Grade code, Pathogenic Fungi, T. ruburm, 3 Days: 3 days incubation; for Grade code, Pathogenic Fungi, T. ruburm, 14 Days: 14 days incubation; for Grade code, Pathogenic Fungi, T. ruburm, 30 Days: 30 days incubation
Procedure: as §1, §2, §3, §4, §5

OCC1CCC(CO)CC1 (centres unmarked) [1,4-CHDM, 1,4-cyclohexanedimethanol]
Grade code C. albicans (Candida albicans; 0.5%, 3 days incubation): 3 (101 to 1000 colonies (thus 1000 to 10,000 cfu/mL))
Grade code C. albicans (Candida albicans; 0.5%, 14 days incubation): 4 (1001 to 10,000 colonies (thus 10,000 cfu/mL to 100,000 cfu/mL))
Grade code C. albicans (Candida albicans; 0.5%, 30 days incubation): 4 (1001 to 10,000 colonies (thus 10,000 cfu/mL to 100,000 cfu/mL))
Grade code C. albicans (Candida albicans; 1.25%, 3 days incubation): 1 (1 to 51 colonies counted (thus 10 to 510 cfu/mL))
Grade code C. albicans (Candida albicans; 1.25%, 14 days incubation): 3 (101 to 1000 colonies (thus 1000 to 10,000 cfu/mL))
Grade code C. albicans (Candida albicans; 1.25%, 30 days incubation): 4 (1001 to 10,000 colonies (thus 10,000 cfu/mL to 100,000 cfu/mL))
Grade code C. albicans (Candida albicans; 2.5%, 3 days incubation): 0 (No growth detected or <1 colony (thus <10 cfu/mL))
Grade code C. albicans (Candida albicans; 2.5%, 14 days incubation): 2 (52 to 100 colonies counted (thus 520 to 1000 cfu/mL))
Grade code C. albicans (Candida albicans; 2.5%, 30 days incubation): 1 (1 to 51 colonies counted (thus 10 to 510 cfu/mL))
Grade code, C. albicans, 3 Day (Candida albicans; 3 days incubation, listed as 0.5% AB): 3 (101 to 1000 colonies (thus 1000 to 10,000 cfu/mL))
Grade code, C. albicans, 3 Day (Candida albicans; 3 days incubation, listed as 1.25% AB): 1 (1 to 51 colonies counted (thus 10 to 510 cfu/mL))
Grade code, C. albicans, 3 Day (Candida albicans; 3 days incubation, listed as 2.5% AB): 0 (No growth detected or <1 colony (thus <10 cfu/mL))
Grade code, C. albicans, 14 Day (Candida albicans; 14 days incubation, listed as 0.5% AB): 4 (1001 to 10,000 colonies (thus 10,000 cfu/mL to 100,000 cfu/mL))
Grade code, C. albicans, 14 Day (Candida albicans; 14 days incubation, listed as 1.25% AB): 3 (101 to 1000 colonies (thus 1000 to 10,000 cfu/mL))
Grade code, C. albicans, 14 Day (Candida albicans; 14 days incubation, listed as 2.5% AB): 2 (52 to 100 colonies counted (thus 520 to 1000 cfu/mL))
Grade code, C. albicans, 30 Days (Candida albicans; 30 days incubation, listed as 0.5% AB): 4 (1001 to 10,000 colonies (thus 10,000 cfu/mL to 100,000 cfu/mL))
Grade code, C. albicans, 30 Days (Candida albicans; 30 days incubation, listed as 1.25% AB): 4 (1001 to 10,000 colonies (thus 10,000 cfu/mL to 100,000 cfu/mL))
Grade code, C. albicans, 30 Days (Candida albicans; 30 days incubation, listed as 2.5% AB): 1 (1 to 51 colonies counted (thus 10 to 510 cfu/mL))
Grade code, Pathogenic Fungi, M. furfur, 3 Days (Malassezia furfur; 3 days incubation): 0
Grade code, Pathogenic Fungi, M. furfur, 14 Days (Malassezia furfur; listed as 0.5% AB): 1
Grade code, Pathogenic Fungi, M. furfur, 14 Days (Malassezia furfur; listed as 1.25% AB): 0
Grade code, Pathogenic Fungi, M. furfur, 14 Days (Malassezia furfur; listed as 2.5% AB): 0
Grade code, Pathogenic Fungi, M. furfur, 30 Days (Malassezia furfur; listed as 0.5% AB): 2
Grade code, Pathogenic Fungi, M. furfur, 30 Days (Malassezia furfur; listed as 1.25% AB): 0
Grade code, Pathogenic Fungi, M. furfur, 30 Days (Malassezia furfur; listed as 2.5% AB): 0
Grade code, Pathogenic Fungi, M. canis, 3 Days (Microsporum canis; 3 days incubation): 2
Grade code, Pathogenic Fungi, M. canis, 14 Days (Microsporum canis; listed as 0.5% AB): 1
Grade code, Pathogenic Fungi, M. canis, 14 Days (Microsporum canis; listed as 1.25% AB): 1
Grade code, Pathogenic Fungi, M. canis, 14 Days (Microsporum canis; listed as 2.5% AB): 0
Grade code, Pathogenic Fungi, M. canis, 30 Days (Microsporum canis; listed as 0.5% AB): 1
Grade code, Pathogenic Fungi, M. canis, 30 Days (Microsporum canis; listed as 1.25% AB): 1
Grade code, Pathogenic Fungi, M. canis, 30 Days (Microsporum canis; listed as 2.5% AB): 0
Grade code, Pathogenic Fungi, T. ruburm, 3 Days (Trichophyton rubrum; listed as 0.5% AB): 1
Grade code, Pathogenic Fungi, T. ruburm, 3 Days (Trichophyton rubrum; listed as 1.25% AB): 0
Grade code, Pathogenic Fungi, T. ruburm, 3 Days (Trichophyton rubrum; listed as 2.5% AB): 0
Grade code, Pathogenic Fungi, T. ruburm, 14 Days (Trichophyton rubrum; listed as 0.5% AB): 1
Grade code, Pathogenic Fungi, T. ruburm, 14 Days (Trichophyton rubrum; listed as 1.25% AB): 0
Grade code, Pathogenic Fungi, T. ruburm, 14 Days (Trichophyton rubrum; listed as 2.5% AB): 0
Grade code, Pathogenic Fungi, T. ruburm, 30 Days (Trichophyton rubrum; listed as 0.5% AB): 1
Grade code, Pathogenic Fungi, T. ruburm, 30 Days (Trichophyton rubrum; listed as 1.25% AB): 0
Grade code, Pathogenic Fungi, T. ruburm, 30 Days (Trichophyton rubrum; listed as 2.5% AB): 0
